{"source": "paper PMC8282797", "about": "“Strictly regulated agonist-dependent activation of AMPA-R is the key characteristic of TAK-653 for robust synaptic responses and cognitive improvement” (Scientific Reports, 2021)", "key": {"[1]": {"tested_on": "GluA1-4i and TARP γ-2 or GluA1-4o and TARP γ-2", "assay": "Ca2+ influx assay, AMPA-R subunit selectivity", "assay_type": "cell-based, human", "method": "Human GluA1/flip and human stargazin co-expressing CHO cells were plated at 3×10^4 cells/well in 96-well Black Clear plate (Corning Incorporated, Corning, NY). For subunit selectivity study, human AMPA-Rs (GluA1-4i, GluA1-4o and GluA1i mutants) and human TARPs γ2 co-expressing CHO cells were plated. For evaluation of the species difference, rat GluA1/flip expressing CHO cells were plated. For mutant channels, Human GluA1i S743A mutant was generated by In-Fusion HD Cloning Kit (Takara Bio Inc., Kusatsu, Japan) according to manufacturer's protocol. Each hGluA1i mutant vector was transiently introduced to CHO cells by Gene Pulser II Electroporation System (Bio-Rad Laboratories, Inc., Hercules, CA) and incubated for 6 h in 5% CO2 at 37°C. Then, cells were harvested and plated. These cells were seeded at 3×10^4 cells/well in 96-well Black Clear plate and incubated for 24 h in 5% CO2 at 37°C. […] Relative increases of intracellular Ca^2+ levels by compounds in the presence and absence of 3 mM L-glutamate were monitored for 3 min by fluorometric imaging plate reader (CellLux, Perkin Elmer Life and Analytical Sciences, Inc., Shelton, CT). Activity of compound was defined as integration value of fluorescence value of each detection point. […] EC50 values were calculated by logistic regression analysis. […]"}, "rats [2]": {"tested_on": "rats", "assay": "Evaluation of convulsion", "assay_type": "in vivo, rat", "details": "100 mg/kg, p.o., 4 h after dosing", "method": "(§1) The data were extracted from the studies conducted in accordance with the Good Laboratory Practice Regulation. […] The dose levels in the first study and second study were set at \"100, 15 and 5 mg/kg, p.o.\" and \"50, 15 and 5 mg/kg, p.o.\", respectively. The dosing suspensions were administered into the stomach via a catheter in the morning at the dose volume of 5 mL/kg. Cage side observations to confirm tonic or […] convulsions were conducted before and at 1, 2, 4, 8 and 24 h after dosing in the first study and before and at 1, 4 and 24 h after dosing in the second study."}, "BDNF mRNA": {"tested_on": "BDNF mRNA", "assay": "BDNF mRNA expression in mouse hippocampus", "assay_type": "in vivo", "details": "3 and 10 mg/kg, p.o.", "method": "Male ICR mice at 7 weeks old were treated with orally administered vehicle or TAK-653. For the repeated dose study, TAK-653 (0.3 mg/kg, p.o.) or vehicle was administered for 14 days. AMPA at designated doses was intravenously (i.v.) administered 1 h after oral administration. Three hours after i.v. administration of AMPA, right hippocampi were isolated from the mice by euthanasia and acutely frozen on dry ice. Total RNA from mouse hippocampus was extracted with RNeasy 96 kit (Qiagen, Hilden, Germany). Reverse transcription of total RNA was performed using the High-capacity cDNA Archive kit (Life Technologies, Carlsbad, CA). Real-time quantitative PCR was carried out using an ABI PRISM 7900HT sequence detection system (Life Technologies) using PCR reagents (Nippon Gene Co. Limited, Toyama, Japan). Primers used for BDNF analyses were as follows: BDNF forward primer, 5’-[…]-3’; BDNF reverse primer, 5’-[…]-3’; BDNF TaqMan probe, 5’-FAM- […]-TAMRA-3’. Primers used for Gadd45b analyses were as follows: Gadd45b forward primer, 5’-[…]-3’; Gadd45b reverse primer, 5’-GCGCCAGCCTCTGCAT-3’; Gadd45b TaqMan probe, 5’'-FAM-[…]-MGB-3’. […] Concentrations of GAPDH mRNA were used for internal controls and relative BDNF or Gadd45b mRNA/GAPDH mRNA levels were calculated."}, "hGluA1i": {"target": "T1, hGluA1i (Homo sapiens, UniProt P42261)", "T1 construct": "expressed in transfected cells; host or cells: CHO cells", "T1 sequence (P42261 19-906 isoform P42261-2 limits assumed)": "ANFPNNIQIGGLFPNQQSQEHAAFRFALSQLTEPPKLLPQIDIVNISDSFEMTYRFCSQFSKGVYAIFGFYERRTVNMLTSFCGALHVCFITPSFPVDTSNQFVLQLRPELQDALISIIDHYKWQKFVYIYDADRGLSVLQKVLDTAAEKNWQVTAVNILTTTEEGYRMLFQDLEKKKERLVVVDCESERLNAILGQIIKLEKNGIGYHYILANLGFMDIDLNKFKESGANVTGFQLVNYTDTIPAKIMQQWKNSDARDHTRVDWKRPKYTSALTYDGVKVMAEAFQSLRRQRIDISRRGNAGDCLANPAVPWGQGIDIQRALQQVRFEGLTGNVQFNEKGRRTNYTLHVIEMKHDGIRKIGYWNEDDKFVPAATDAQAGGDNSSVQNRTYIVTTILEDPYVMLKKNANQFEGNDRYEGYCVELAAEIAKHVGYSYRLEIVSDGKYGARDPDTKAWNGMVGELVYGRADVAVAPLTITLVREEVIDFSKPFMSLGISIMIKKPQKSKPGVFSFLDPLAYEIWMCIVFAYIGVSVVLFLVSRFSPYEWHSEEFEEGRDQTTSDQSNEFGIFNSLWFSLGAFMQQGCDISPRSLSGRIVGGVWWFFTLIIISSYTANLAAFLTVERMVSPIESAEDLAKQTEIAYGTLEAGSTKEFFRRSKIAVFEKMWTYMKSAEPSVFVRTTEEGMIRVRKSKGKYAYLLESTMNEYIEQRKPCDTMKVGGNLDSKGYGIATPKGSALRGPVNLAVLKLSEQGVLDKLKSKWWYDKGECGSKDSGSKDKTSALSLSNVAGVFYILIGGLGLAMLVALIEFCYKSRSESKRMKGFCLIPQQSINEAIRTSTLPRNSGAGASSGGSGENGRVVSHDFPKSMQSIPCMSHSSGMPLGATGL", "T1 sequence (Q9Y698 whole entry partner)": "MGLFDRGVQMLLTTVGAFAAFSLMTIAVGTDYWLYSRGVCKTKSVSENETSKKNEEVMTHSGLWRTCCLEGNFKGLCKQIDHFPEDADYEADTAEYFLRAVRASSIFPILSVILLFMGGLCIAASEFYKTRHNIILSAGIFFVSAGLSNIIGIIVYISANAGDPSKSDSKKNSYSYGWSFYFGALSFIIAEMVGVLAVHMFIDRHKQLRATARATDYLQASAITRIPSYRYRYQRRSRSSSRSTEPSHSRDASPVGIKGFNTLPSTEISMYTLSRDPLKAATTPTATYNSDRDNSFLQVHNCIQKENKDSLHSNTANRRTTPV", "assay": "Ca2+ influx assay in hGluA1i CHO cells", "assay_type": "cell-based", "details": "in the presence of glutamate (3 mM)", "method": "Ca^2+ influx assays using human GluA1/flip and human stargazin co-expressing CHO cells plated at 3 × 10^4 cells/well in 96-well Black Clear plates (Corning Incorporated, Corning, NY) were performed as previously described, with some modifications. For evaluation of the species difference, rat GluA1/flip expressing CHO cells were plated. For mutant channels, the human GluA1i S743A mutant was generated using the In-Fusion HD Cloning Kit (Takara Bio Inc., Kusatsu, Japan) according to the manufacturer's protocol and transiently introduced to CHO cells by Gene Pulser II Electroporation System (Bio-Rad Laboratories, Inc., Hercules, CA). Relative increases of intracellular Ca^2+ levels were monitored for 3 min with a fluorometric imaging plate reader (CellLux, Perkin Elmer Life and Analytical Sciences, Inc., Shelton, CT). […]\nHuman GluA1/flip and human stargazin co-expressing CHO cells were plated at 3×10^4 cells/well in 96-well Black Clear plate (Corning Incorporated, Corning, NY). […] Relative increases of intracellular Ca^2+ levels by compounds in the presence and absence of 3 mM L-glutamate were monitored for 3 min by fluorometric imaging plate reader (CellLux, Perkin Elmer Life and Analytical Sciences, Inc., Shelton, CT). Activity of compound was defined as integration value of fluorescence value of each detection point. […] EC50 values were calculated by logistic regression analysis."}, "rats [3]": {"tested_on": "rats", "assay": "Exposure margin against seizure after acute treatment", "assay_type": "in vivo, rat", "details": "NOR improvement versus absence of seizure signs", "method": "Thus, we decided to calculate the exposure safety margins of AMPA-R potentiators based on the cognitive improvement in the NOR test and the absence of signs of seizures. […] Thus, TAK-653 may have a wider exposure margin than LY451646 in rats.\nas §1\nThe Sprague–Dawley rats treated with orally administered TAK-653 were decapitated at each time point, and trunk blood was collected into 1.5-mL centrifuge tubes. Plasma was separated from the blood samples by centrifugation. The concentrations of TAK-653 in the plasma were determined using liquid chromatography/tandem mass spectrometry (LC/MS/MS)."}}, "data": [{"smiles": "CC1=CN2CCS(=O)(=O)N=C2C(c2ccc(OC3CCCCC3)cc2)=N1", "note": "[TAK-653, 9-[4-(Cyclohexyloxy)phenyl]-7-methyl-3,4-dihydropyrazino[2,1-c][1,2,4]thiadiazine 2,2-dioxide]", "values": [{"measurement": "Subunit selectivity for homomeric AMPA-R", "setting": "[1]", "result": "did not show prominent subunit selectivity"}, {"measurement": "Convulsions", "setting": "rats [2]", "result": "chronic and tonic convulsions in 1 animal"}, {"measurement": "BDNF mRNA levels in hippocampus", "setting": "BDNF mRNA; AMPA (3.5 mg/kg, i.v.)-treated mice", "result": "significantly increased"}, {"measurement": "BDNF mRNA levels in hippocampus", "setting": "BDNF mRNA; compound alone", "result": "did not increase"}, {"measurement": "EC50", "setting": "hGluA1i", "result": 3.3, "unit": "µM"}, {"measurement": "Margin based on AUCplasma", "setting": "rats [3]", "result": 1017, "unit": "fold"}, {"measurement": "Margin based on plasma Cmax", "setting": "rats [3]", "result": 419, "unit": "fold"}]}]}
